Test in all cases: inhibition of tumour cell growth, NCI panel, 48 h
The subject of test [1] is PC-3.
The test system of test [2] is NCI-H522.
Test [3] concerns UACC-62.
The subject of test [4] is MDA-N.
In test [5] the test system is A549.
Test [6] has as its system SNB-19.
For test [7], the system named is SF-295.
For test [8], the system named is SN12C.
For test [9], the system named is NCI-H23.
For test [10], the system named is Malme-3M.
The subject of test [11] is OVCAR-4.
In test [12] the test system is SW-620.
Test [13] has as its system U-251.
The test system of test [14] is HCT-15.
Test [15] relates to TK-10.
For test [16], the system named is EKVX.
For test [17], the system named is OVCAR-3.
In test [18] the test system is UACC-257.
Test [19] has as its system Hs-578T.

Structures are written as SMILES.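 96-well plates; 48 h exposure; 5 concentrations. Endpoints by linear interpolation between flanking doses. Not reached: highest tested concentration assigned. Here, GI50 denotes the concentration required for 50% inhibition of growth.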 Calls of active or inactive are those of the source. Cut-off read from the data, not from the text of the source: active = GI50 up to about 1.1 µM and inactive = higher. A value given as a limit tells only on which side of the number the result lay.

In the case of `CC(NNC(=O)c1ccncc1)c1ccc(F)cc1` (configuration not stated), the GI50 in test [1], in [2], in test [3], in test [4], in test [5] and in test [6] was > 100 µM (inactive) throughout. Further, the GI50 in test [7], in [8], in test [9], in [10], in [11] and in [12] was > 100 µM (inactive) each time. Also, the GI50 in [13] was > 100 µM (inactive); in test [14] it was over 100 µM; in test [15], > 100 µM (inactive); in [16] it was > 100 µM (inactive); in test [17], > 100 µM (inactive); in test [18] it was > 100 µM (inactive). Further, in [19], the GI50 is > 100 µM (inactive).

Consider `CS(=O)(=O)Nc1ccc2c(c1)oc(=O)c1ccccc12`, for which the GI50 is > 100 µM (inactive) in test [1]; > 100 µM (inactive) in [2]; 65 µM (inactive) in test [3]; > 100 µM (inactive) in [4]; > 100 µM (inactive) in [5]; > 100 µM (inactive) in [6]. The GI50 in [7], in test [8], in [9], in [10], in test [11] and in test [12] was > 100 µM (inactive) each time. Moreover, the GI50 in test [13] was > 100 µM (inactive); in [14], over 100 µM; in test [16], 45.4 µM (inactive); in test [17], > 100 µM (inactive); in test [18], > 100 µM (inactive); in test [19] it was > 100 µM (inactive).

Regarding `Cc1nc2ccc(/N=N/N(C)C)cc2[nH]1`, the GI50 in test [1], in [2], in test [3], in [4], in [5] and in test [6] was > 100 µM (inactive) throughout. In addition, the GI50 in test [7], in test [8], in [10], in test [11], in test [12] and in [13] was > 100 µM (inactive) throughout. Also, the GI50 was over 100 µM in test [14]; > 100 µM (inactive) in test [15]; > 100 µM (inactive) in [16]; > 100 µM (inactive) in test [17]; > 100 µM (inactive) in test [18]; > 100 µM (inactive) in [19].

As to `CNc1ccc(C)cc1S(=O)(=O)c1ccccc1[N+](=O)[O-]`, the GI50 was 28.1 µM (inactive) in test [1]; 31.8 µM (inactive) in [2]; 22.1 µM (inactive) in test [3]; 26.2 µM (inactive) in test [4]; 41.3 µM (inactive) in [5]; 78 µM (inactive) in [6]. The GI50 in test [7] is 42.1 µM (inactive); in test [8], 86.7 µM (inactive); in [9], 63 µM (inactive); in test [10] it was 60.3 µM (inactive); in test [11] it was 25.2 µM (inactive); in test [12], 69.8 µM (inactive). The GI50 in test [13] is 57.7 µM (inactive); in test [14], 41.3 µM; in test [15], 99.3 µM (inactive); in test [16], 51.8 µM (inactive); in [17] it was 43.2 µM (inactive); in [19], 55.7 µM (inactive).

As for `O=c1[nH]nc(Cc2ccccc2)n1/N=C/c1ccncc1`, the GI50 in test [1], in test [2], in test [4], in [5], in [6] and in test [7] was > 100 µM (inactive) each time. The GI50 in [8], in [9], in test [10], in [11], in test [12] and in test [13] was > 100 µM (inactive) each time. Further, the GI50 in [14] was over 100 µM; in test [15], > 100 µM (inactive); in test [16], > 100 µM (inactive); in test [17], > 100 µM (inactive); in test [18], > 100 µM (inactive); in [19], 82.2 µM (inactive).

As to `CCOC(=O)c1ccc(N2C(=S)N(C(=O)c3ccccc3)C(=N/c3ccccc3)/C2=N\c2ccccc2)cc1`, the GI50 was 59 µM (inactive) in test [1]; 51.2 µM (inactive) in test [2]; 29.6 µM (inactive) in [3]; 26.5 µM (inactive) in test [4]; 52.8 µM (inactive) in [5]; 72.9 µM (inactive) in test [6]. Also, the GI50 in [7] was 65.9 µM (inactive); in test [8] it was > 100 µM (inactive); in test [9], 56.1 µM (inactive); in test [10], 53.5 µM (inactive); in [12] it was > 100 µM (inactive); in [13], 25.5 µM (inactive). For the same compound, the GI50 in [14] was over 100 µM; in test [15], 62.1 µM (inactive); in [16] it was > 100 µM (inactive); in test [17], 25.3 µM (inactive); in test [18], > 100 µM (inactive); in [19] it was 58.3 µM (inactive).

On to `CC1(C)[C@H]2Cc3cc(-c4cc5c(cn4)[C@@H]4C[C@H]([C@@H]5[C@@H]5c6cc(-c7cc8c(cn7)[C@@H]7C[C@H](C8)C7(C)C)ncc6[C@@H]6C[C@H]5C6(C)C)C4(C)C)ncc3[C@@H]1C2`, for which the GI50 in [1], in [2], in test [3], in test [4], in [5] and in test [6] was > 100 µM (inactive) each time. Moreover, the GI50 in [7], in [8], in [9], in [10], in test [12] and in [13] was > 100 µM (inactive) in each case. Also, the GI50 in test [14] is over 100 µM; in test [16] it was > 100 µM (inactive); in test [17], > 100 µM (inactive); in [18] it was > 100 µM (inactive); in test [19], > 100 µM (inactive).

With `Cc1ccc(S(=O)(=O)ON2C(=O)c3c(N)c(C#N)c(-c4ccccc4)c(-c4ccccc4)c3C2=O)cc1`, the GI50 in test [1] is 15.7 µM (inactive); in [2], 15.6 µM (inactive); in [3], 17.1 µM (inactive); in test [4], 16.4 µM (inactive); in test [5], 19.4 µM (inactive); in test [6] it was 24 µM (inactive). The GI50 in test [7] is 20 µM (inactive); in test [8], 18.1 µM (inactive); in test [10], 21.5 µM (inactive); in test [11], 21.9 µM (inactive); in test [12], 14.6 µM (inactive); in test [13], 16.2 µM (inactive). Moreover, the GI50 is 17.2 µM in [14]; 17.3 µM (inactive) in test [15]; 14.6 µM (inactive) in [16]; 13.6 µM (inactive) in test [17]; 18.6 µM (inactive) in test [18]; 71.3 µM (inactive) in test [19].

On to `CC[C@@]1(C[C@H]2C[C@@]3(C(=O)OC)c4[nH]c5ccccc5c4CCN3C2=O)COC2(CCCCC2)O1`, for which the GI50 is 15 µM (inactive) in test [1]; 37.1 µM (inactive) in test [2]; 23.5 µM (inactive) in test [3]; 43.2 µM (inactive) in test [4]; 24.5 µM (inactive) in test [5]; 12.5 µM (inactive) in [6]. Further, the GI50 was 33.4 µM (inactive) in test [7]; 45.7 µM (inactive) in test [8]; 24.2 µM (inactive) in test [9]; 55.3 µM (inactive) in [10]; 58.2 µM (inactive) in test [11]; 33.3 µM in test [14]. Further, the GI50 in test [15] is 32.8 µM (inactive); in test [16], 61.9 µM (inactive); in test [17] it was 51.2 µM (inactive); in test [18], 20 µM (inactive); in test [19] it was 18.9 µM (inactive).

In the case of `CCCCC1Cc2cc(OC)ccc2-c2nc3cc(OC)ccc3n21.CCCCC1Cc2cc(OC)ccc2-c2nc3ccc(OC)cc3n21` (configuration not stated), the GI50 in test [1] was 11.2 µM (inactive); in test [2], 7.67 µM (inactive); in test [3] it was 12.9 µM (inactive); in test [4] it was 14 µM (inactive); in test [5] it was 14 µM (inactive); in test [6], 9.73 µM (inactive). The GI50 in test [8] is 14.7 µM (inactive); in test [9], 14.7 µM (inactive); in test [10], 16 µM (inactive); in test [11], 4.7 µM (inactive); in [12], 14.5 µM (inactive); in test [13], 15 µM (inactive). For the same compound, the GI50 is 3.37 µM in test [14]; 18.7 µM (inactive) in test [15]; 12.6 µM (inactive) in test [16]; 15 µM (inactive) in test [17]; 14.4 µM (inactive) in test [18]; 12.7 µM (inactive) in test [19].

For the compound `C=C1CCCCCCCCCCC12SCCC2CCCCSC` (configuration not stated), the GI50 in test [1] was 22.6 µM (inactive); in test [2], 17.2 µM (inactive); in test [3], 27.1 µM (inactive); in test [4], 34.4 µM (inactive); in test [5], 34.3 µM (inactive); in test [6] it was 21.8 µM (inactive). The GI50 is 19.9 µM (inactive) in test [7]; 24.3 µM (inactive) in test [8]; 25.7 µM (inactive) in test [9]; 19.7 µM (inactive) in test [10]; 39.8 µM (inactive) in test [11]; 20.3 µM (inactive) in test [12]. Besides, the GI50 in test [13] was 17.9 µM (inactive); in test [14] it was 26 µM; in test [16] it was 34.6 µM (inactive); in test [17], 16.7 µM (inactive); in test [18], 26.1 µM (inactive); in test [19] it was 39.4 µM (inactive).

These data come from ChEMBL document CHEMBL1201862, “PubChem BioAssay data set” (2004).
